Source: ChEMBL document CHEMBL1130755, “Synthesis of a new class of camptothecin derivatives, the long-chain fatty acid esters of 10-hydroxycamptothecin, as a potent prodrug candidate, and their in vitro metabolic conversion by carboxylesterases” (Bioorg Med Chem Lett, 1998)
Blank lines part the entries; values can stand above or below the compound they belong to.

How the values were obtained:
Carboxylesterase 1E = molecular target: T1, Carboxylesterase 1E (Rattus norvegicus, UniProt Q63108); assay: Specific activity (hydrolysis) by purified carboxylesterase isozyme RH1 against microsomes in rat liver
T1 sequence (Q63108 whole entry): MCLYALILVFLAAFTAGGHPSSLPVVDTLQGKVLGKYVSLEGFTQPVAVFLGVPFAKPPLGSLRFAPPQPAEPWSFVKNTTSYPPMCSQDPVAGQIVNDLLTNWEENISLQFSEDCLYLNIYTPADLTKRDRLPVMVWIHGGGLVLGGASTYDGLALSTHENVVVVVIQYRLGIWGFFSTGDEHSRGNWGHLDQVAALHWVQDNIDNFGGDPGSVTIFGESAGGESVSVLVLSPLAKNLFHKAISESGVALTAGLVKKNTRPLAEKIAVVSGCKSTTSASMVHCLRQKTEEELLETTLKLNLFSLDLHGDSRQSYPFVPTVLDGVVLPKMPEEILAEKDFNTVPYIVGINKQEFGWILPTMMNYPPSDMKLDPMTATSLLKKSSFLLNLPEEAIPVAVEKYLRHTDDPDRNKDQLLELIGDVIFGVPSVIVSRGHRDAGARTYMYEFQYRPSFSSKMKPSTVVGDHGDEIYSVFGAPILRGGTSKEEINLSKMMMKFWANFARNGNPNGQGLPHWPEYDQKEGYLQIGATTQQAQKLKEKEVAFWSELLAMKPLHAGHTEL

[1] = test system: Liver carboxylesterase 1 (Sus scrofa); assay: Specific activity (hydrolysis) by purified carboxylesterase isozyme P1 against microsomes in pig liver
Liver carboxylesterase 1 = molecular target: T2, Liver carboxylesterase 1 (Homo sapiens, UniProt P23141); assay: Specific activity (hydrolysis) by purified carboxylesterase isozyme HU1 against microsomes in human liver
T2 sequence (P23141 whole entry): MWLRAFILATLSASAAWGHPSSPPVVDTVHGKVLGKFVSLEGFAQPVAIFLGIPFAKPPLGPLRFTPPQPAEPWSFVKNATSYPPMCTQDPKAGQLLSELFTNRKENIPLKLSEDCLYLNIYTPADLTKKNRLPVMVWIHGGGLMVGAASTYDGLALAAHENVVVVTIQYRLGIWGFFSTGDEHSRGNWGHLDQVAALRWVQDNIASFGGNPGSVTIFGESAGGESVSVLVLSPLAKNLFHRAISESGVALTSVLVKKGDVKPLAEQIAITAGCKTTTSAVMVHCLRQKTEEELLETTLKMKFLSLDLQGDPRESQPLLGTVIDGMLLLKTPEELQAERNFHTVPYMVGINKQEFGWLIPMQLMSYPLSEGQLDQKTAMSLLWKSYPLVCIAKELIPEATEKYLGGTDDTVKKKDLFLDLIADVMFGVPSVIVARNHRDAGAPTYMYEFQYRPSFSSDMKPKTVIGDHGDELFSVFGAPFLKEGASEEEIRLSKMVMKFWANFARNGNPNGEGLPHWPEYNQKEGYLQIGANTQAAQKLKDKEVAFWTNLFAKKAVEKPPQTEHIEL

SMILES: CCCCCCCCCCCCCCCCCC(=O)Oc1ccc2nc3c(cc2c1)Cn1c-3cc2c(c1=O)COC(=O)[C@]2(O)CC
Activity (Carboxylesterase 1E): 0.698 nmol/min/mg
Activity [1]: 3.02 nM/mg/min
Activity (Liver carboxylesterase 1): 1.27 nmol/min/mg

SMILES: CCCCCCCCCCCCCCCC(=O)Oc1ccc2nc3c(cc2c1)Cn1c-3cc2c(c1=O)COC(=O)[C@]2(O)CC
Activity (Carboxylesterase 1E): 2.33 nmol/min/mg
Activity [1]: 9.13 nM/mg/min
Activity (Liver carboxylesterase 1): 1.58 nmol/min/mg

SMILES: CCCCCCCCCC(=O)Oc1ccc2nc3c(cc2c1)Cn1c-3cc2c(c1=O)COC(=O)[C@]2(O)CC
Activity (Carboxylesterase 1E): 17.4 nmol/min/mg
Activity [1]: 37.4 nM/mg/min
Activity (Liver carboxylesterase 1): 27.9 nmol/min/mg

SMILES: CCCCCCCCCCCC(=O)Oc1ccc2nc3c(cc2c1)Cn1c-3cc2c(c1=O)COC(=O)[C@]2(O)CC
Activity (Carboxylesterase 1E): 19.1 nmol/min/mg
Activity [1]: 42.1 nM/mg/min
Activity (Liver carboxylesterase 1): 15.3 nmol/min/mg

SMILES: CCCCCCCCCCCCCCCCCCCC(=O)Oc1ccc2nc3c(cc2c1)Cn1c-3cc2c(c1=O)COC(=O)[C@]2(O)CC
Activity (Carboxylesterase 1E): 0.183 nmol/min/mg
Activity [1]: 0.854 nM/mg/min
Activity (Liver carboxylesterase 1): 1.07 nmol/min/mg

Activity (Carboxylesterase 1E): 0.259 nmol/min/mg
SMILES: CCc1c2c(nc3ccc(OC(=O)N4CCC(N5CCCCC5)CC4)cc13)-c1cc3c(c(=O)n1C2)COC(=O)[C@]3(O)CC [IRINOTECAN]
